In patent publication US12630565B2, “DNA-dependent protein kinase inhibitor” (DIZAL (JIANGSU) PHARMACEUTICAL CO., LTD., priority 2019, dated 2026):

What was measured:
MDR1, BCRP = experiment: MDCKII-MDR1-BCRP efflux assay; type: in vitro ADME; settings: dog, pH 7.4, 5 μM compound, HBSS pH 7.4, read-out: MDCK-Mdr1-BCRP efflux ratio
Method in brief: (§1)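 Bidirectional (A-B, B-A) transport of 5 μM compound across MDCKII-MDR1-BCRP monolayers in HBSS, 25 mM HEPES pH 7.4, ~37° C. for 120 min, triplicate; donor and receiver concentrations measured, monolayer integrity checked with Lucifer yellow. Papp and efflux ratio calculated.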

[1] = molecular target: Full length human DNAPK protein (Homo sapiens, UniProt P78527); experiment: DNA-PK enzymatic assay (TR-FRET); type: biochemical; settings: 10 μM ATP, 1.6 μM peptide substrate
[2] = Brain-blood-barrier penetration assay (short oral absorption model, Kp,uu); type: in vivo; settings: male, Han Wistar, rat, brain and plasma, po, 10 mg/kg, male Han Wistar rats, oral 10 mg/kg in 1% methylcellulose; AUC(brain)/AUC(plasma)×(fu,brain/fu.plasma)
Procedure: It is believed that Kp,uu, the relationship between concentrations of unbound drug in brain and in plasma, is the key to prediction of CNS action and should be the main parameter measured and optimized for in drug discovery (Di L et al., Journal of Medicinal Chemistry [2013], 56: 2-12).
In vitro plasma and brain binding assay was carried out by using equilibrium dialysis method with semi-permeable membrane. Plasma and diluted brain homogenate (1:4 with DPBS pH7.4) were spiked with 5 μM test compound (in triplicate) and dialyzed against equal volume of 150 μL 100 mM PBS buffer (pH7.4) at 37° C. for 18 hours in a slowly rotated plate. At the end of incubation, a 50 μL aliquot from the receiver side and a 5 μL from the donor chamber were taken. The 5 μL sample was further diluted with 45 μL of blank plasma or brain homogenate. Paired samples were matrix-matched with either buffer or blank plasma/brain homogenate and mixed for 2 min, and then precipitated with 150 μL cold acetonitrile with 100 ng/mL tolbutamide as internal standard. After centrifuging at 4000 rpm for 20 min, supernatant was diluted with 0.1% formic acid aqueous solution and analyzed for LC/MS/MS (API 4000, Applied Biosystems, Foster City). Unbound fraction (fu) of test compound in the brain homogenate and diluted plasma were calculated by the ratio of the buffer side response to the brain homogenate/plasma side response, and unbound fraction (fu,pl and fu,br) of test compound in non-diluted plasma and tissue were calculated from measured fu in homogenate and plasma with the following equation: fu,bl (fu,br)=(1/D)/[(1/fu−1)+1/D)]. D is dilution factor.
A Short oral absorption (SOA) model is an in-vivo screening model to identify brain penetration of a compound. Six male Han Wistar rats purchased from Beijing Vital River were orally dosed with the compound at 10 mg/kg in 1% methylcellulose At 0.5, 1, 2, 4, 7 and 16 hour post-dose, cerebral spinal fluid (CSF) was collected from cisterna magna. Plasma samples will be processed for plasma by centrifugation at approximately 4° C., 3,000 g within half an hour of collection. Plasma samples will be removed to a labeled tube and stored at −80 degree until analysis. Brain tissue was harvested and homogenized in 3× volume of 100 mM phosphate buffered saline (pH7.4). All samples were stored at ˜−70° C. prior to LC/MS/MS analysis.
Standards were prepared by spiking blank plasma, brain homogenate and artificial CSF covering 0.5 to 500 ng/mL. Homogenized brain tissue along with plasma samples were precipitated by adding 3-fold volume of cold acetonitrile containing internal standard (40 ng/mL Dexamethasone and 40 ng/mL Diclofenac), and 10 μL of CSF samples were precipitated with 100 μL of cold acetonitrile containing internal standard. After 2 min vortex and 5 min centrifugation at 14,000 rpm, supernatant was analyzed by LC/MS/MS (API 4000, Applied Biosystems, Foster City). Two sets of standard curves were run at the beginning and end of each batch from plasma sample analysis. For brain and CSF samples, one standard curve was analyzed along with test samples.
Total brain levels, expressed as brain/plasma ratio (Kp) were measured by AUCbrain/AUCplasma in rodents after oral administration. Free fraction of test compound in biological matrix was determined by in vitro plasma and brain binding assay. Kp,uu was calculated by the following equation: Kp,uu=AUC (brain)/AUC (plasma)×(fu,brain/fu.plasma).

[3] = Metabolic stability assay (human microsomal Clint); type: in vitro ADME; settings: 1 mg/mL microsomes, 1 mM NADPH, 37° C.; for microsomal CLint at 1 μM: human, pooled human liver microsomes, pH 7.4, 1 μM compound; for Human liver microsomal CLint: 1 μM compound
Method in brief: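 Compound (1 μM) incubated at 37 °C with pooled human liver microsomes (1 mg/mL) and 1 mM NADPH in 100 mM phosphate, pH 7.4. Samples quenched in acetonitrile at 0–30 min and analysed by LC-MS/MS for parent loss. CLint reported in μl/min/mg.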

Rat hepatocyte = experiment: Metabolic stability assay (rat hepatocyte Clint); type: in vitro ADME; settings: 1 μM compound, cryopreserved hepatocytes 1 million cells per mL
Method in brief: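 Compound at 1 μM incubated with cryopreserved rat hepatocytes, 1 million cells/mL, sampled 0–120 min with acetonitrile quench and LC-MS/MS quantitation. CLint (μL/min/E6) derived from elimination rate constant and half-life of parent disappearance, scaled by cell concentration.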

[4] = test system: MDCKII-MDR1-BCRP cell monolayers; experiment: MDCKII-MDR1-BCRP efflux assay; type: in vitro ADME; settings: 5 μM compound, 120 min, HBSS pH 7.4
Method in brief: as §1

| Compound | efflux ratio at 120 min, 5 μM (MDR1, BCRP) | IC50 [1] [nM] | Kp uu [2] | microsomal CLint at 1 μM [3] [µL/min/mg] | Rat hepatocyte CLint (μl/min/10^−6 cells) (Rat hepatocyte) | MDCK-Mdr1-BCRP efflux ratio [4] | Human liver microsomal CLint [3] [µL/min/mg] |
| --- | --- | --- | --- | --- | --- | --- | --- |
| Cc1cc2nccn2cc1Nc1ncc2c(n1)c(C1CCOCC1)nn2C [Example 2, 1-methyl-N-(7-methylimidazo[1,2-a]pyridin-6-yl)-3-(tetrahydro-2H-pyran-4-yl)-1H-pyrazolo[4,3-d]pyrimidin-5-amine] | 3.3 | 1.4 | 0.14 | 12.7 | 3.0 | – | – |
| CO[C@H]1CC[C@H](n2nc(C)c3cnc(Nc4cn5ncnc5cc4C)nc32)CC1 [Example 24, 1-((1r,4r)-4-methoxycyclohexyl)-3-methyl-N-(7-methyl-[1,2,4]triazolo[1,5-a]pyridin-6-yl)-1H-pyrazolo[3,4-d]pyrimidin-6-amine] | 1.4 | 0.4 | 0.1 | 72.3 | 5.5 | – | – |
| Cc1cc2ncnn2cc1Nc1ncc2c(n1)c(C1CCOCC1)nn2C [Example 1, 1-methyl-N-(7-methyl-[1,2,4]triazolo[1,5-a]pyridin-6-yl)-3-(tetrahydro-2H-pyran-4-yl)-1H-pyrazolo[4,3-d]pyrimidin-5-amine] | 5.9 | 0.8 | 0.17 | 19.8 | 5.4 | – | – |
| Cc1cc2ncnn2cc1Nc1ncc2c(C)nn(C3CCC(F)(F)CC3)c2n1 [Example 21, 1-(4,4-difluorocyclohexyl)-3-methyl-N-(7-methyl-[1,2,4]triazolo[1,5-a]pyridin-6-yl)-1H-pyrazolo[3,4-d]pyrimidin-6-amine] | 1.3 | 1.4 | 0.08 | 102 | 10.0 | – | – |
| Cc1cc2ncnn2cc1Nc1ncc2c(C)nn(C3CCCOCC3)c2n1 (single isomer, unassigned) [Example 34, 3-methyl-N-(7-methyl-[1,2,4]triazolo[1,5-a]pyridin-6-yl)-1-(oxepan-4-yl)-1H-pyrazolo[3,4-d]pyrimidin-6-amine] | – | 1.2 | 0.24 | – | 12.7 | 3.5 | 31.4 |
| Cc1cc2ncnn2cc1Nc1ncc2c(C)nn(C3CCCOC3)c2n1 (single isomer, unassigned) [Example 30, 3-methyl-N-(7-methyl-[1,2,4]triazolo[1,5-a]pyridin-6-yl)-1-(tetrahydro-2H-pyran-3-yl)-1H-pyrazolo[3,4-d]pyrimidin-6-amine] | – | 15.7 | – | – | 4.5 | 1.2 | 17.7 |
| Cc1cc2ncnn2cc1Nc1ncc2c(C)nn(C3CCOC(C)C3)c2n1 (single isomer, unassigned) [Example 36, 3-methyl-N-(7-methyl-[1,2,4]triazolo[1,5-a]pyridin-6-yl)-1-(2-methyltetrahydro-2H-pyran-4-yl)-1H-pyrazolo[3,4-d]pyrimidin-6-amine] | – | 1.4 | – | – | 11.6 | 2.1 | 51.5 |
| CO[C@H]1CC[C@H](c2nn(C)c3cnc(Nc4cn5ncnc5cc4C)nc32)CC1 [Example 7, 3-((1r,4r)-4-methoxycyclohexyl)-1-methyl-N-(7-methyl-[1,2,4]triazolo[1,5-a]pyridin-6-yl)-1H-pyrazolo[4,3-d]pyrimidin-5-amine] | 2.3 | 0.8 | 0.1 | 75.1 | 7.5 | – | – |

Results, then the molecule that gave them:

| efflux ratio at 120 min, 5 μM (MDR1, BCRP) | IC50 [1] [nM] | Kp uu [2] | microsomal CLint at 1 μM [3] [µL/min/mg] | Rat hepatocyte CLint (μl/min/10^−6 cells) (Rat hepatocyte) | MDCK-Mdr1-BCRP efflux ratio [4] | Human liver microsomal CLint [3] [µL/min/mg] | Compound |
| --- | --- | --- | --- | --- | --- | --- | --- |
| 2.1 | 0.9 | 0.19 | 68.9 | 17.6 | – | – | Cc1cc2ncnn2cc1Nc1ncc2c(C)nn([C@H]3C[C@H]4CC[C@@H](C3)O4)c2n1 [Example 106, 1-((1R,3r,5S)-8-oxabicyclo[3.2.1]octan-3-yl)-3-methyl-N-(7-methyl-[1,2,4]triazolo[1,5-a]pyridin-6-yl)-1H-pyrazolo[3,4-d]pyrimidin-6-amine] |
| 2.7 | 1.3 | 0.3 | 13.9 | 4.5 | – | – | Cc1cc2ncnn2cc1Nc1ncc2c(C)nn([C@@H]3C[C@H]4CC[C@@H](C3)O4)c2n1 [Example 107, 1-((1R,3s,5S)-8-oxabicyclo[3.2.1]octan-3-yl)-3-methyl-N-(7-methyl-[1,2,4]triazolo[1,5-a]pyridin-6-yl)-1H-pyrazolo[3,4-d]pyrimidin-6-amine] |
| – | 12 | – | – | <1 | 1.9 | 20.9 | Cc1cc2ncnn2cc1Nc1ncc2c(C)nn(CC3CCCO3)c2n1 (single isomer, unassigned) [Example 51, 3-methyl-N-(7-methyl-[1,2,4]triazolo[1,5-a]pyridin-6-yl)-1-((tetrahydrofuran-2-yl)methyl)-1H-pyrazolo[3,4-d]pyrimidin-6-amine] |
| – | 1.8 | 0.25 | – | 17.4 | 1.7 | 64.8 | COC1CCC(n2nc(C)c3cnc(Nc4cn5ncnc5cc4C)nc32)C1 (single isomer, unassigned) [Example 110, 1-(3-methoxycyclopentyl)-3-methyl-N-(7-methyl-[1,2,4]triazolo[1,5-a]pyridin-6-yl)-1H-pyrazolo[3,4-d]pyrimidin-6-amine] |
| – | 7.2 | – | – | 5.0 | 2.4 | 15.2 | Cc1cc2ncnn2cc1Nc1ncc2c(C)nn(CC3CCOC3)c2n1 (single isomer, unassigned) [Example 53, 3-methyl-N-(7-methyl-[1,2,4]triazolo[1,5-a]pyridin-6-yl)-1-((tetrahydrofuran-3-yl)methyl)-1H-pyrazolo[3,4-d]pyrimidin-6-amine] |
